Our source for the Ki and IC50 values is patent US10005721B2, “Dimethylbenzoic acid compounds” (Eli Lilly and Company, priority 2013, dated 2018).

One assay concerns the target T1, human EP1 (Homo sapiens, UniProt P34995).
T1 construct: expressed in transfected cells
T1 sequence (P34995 1-402): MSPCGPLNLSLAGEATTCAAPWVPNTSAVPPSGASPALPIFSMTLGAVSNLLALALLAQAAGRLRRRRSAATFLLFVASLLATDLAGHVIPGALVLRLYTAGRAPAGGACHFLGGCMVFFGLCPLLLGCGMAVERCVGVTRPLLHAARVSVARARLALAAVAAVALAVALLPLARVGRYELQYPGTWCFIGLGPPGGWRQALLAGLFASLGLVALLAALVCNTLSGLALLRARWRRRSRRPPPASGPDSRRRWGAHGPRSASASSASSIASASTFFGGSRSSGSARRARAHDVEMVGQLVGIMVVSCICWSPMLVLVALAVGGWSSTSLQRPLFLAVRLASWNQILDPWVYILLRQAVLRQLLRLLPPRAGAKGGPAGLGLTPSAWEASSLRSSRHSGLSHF
Put plainly: In vitro binding to human EP1 ([3H]-PGE2 displacement, membranes). The settings on record: HEK293 membranes, geometric mean ± SD, read-out: hEP1, Ki. How it is done:
(§1) hEP1 and hEP4 membranes are prepared from recombinant HEK293 cells stably expressing human EP1 (Genbank accession number AY275470) or EP4 (Genbank accession number AY429109) receptors. hEP2 and hEP3 membranes are prepared from HEK293 cells transiently transfected with EP2 (Genbank accession number AY275471) or EP3 (isoform VI: Genbank accession number AY429108) receptor plasmids. Frozen cell pellets are homogenized in homogenization buffer using a Teflon/glass homogenizer. Membrane protein is aliquoted and quick frozen on dry ice prior to storage at −80° C. Homogenization buffer contained 10 mM Tris-HCl, pH 7.4, 250 mM sucrose, 1 mM EDTA, 0.3 mM indomethacin and plus Complete™, with EDTA, obtained from Roche Molecular Biochemicals (Catalog Number 1 697 498).
(§2) Kd values for [^3H]-PGE2 binding to each receptor are determined by saturation binding studies or homologous competition. […] Non-specific binding is calculated by comparing binding in the presence and absence of 2 μM of PGE2. The membranes are harvested by filtration (TomTek harvester), washed 4 times with cold buffer (10 mM MES pH 6.0 with KOH, 10 mM MgCl2), dried in a 60° C. oven, and the radioactivity is quantified as counts per minute (CPM) using a TopCount detector. Percent specific binding is calculated as the percent of the binding in the absence of any inhibitor, corrected for binding in the presence of 2 uM of PGE2. […]

The target of the next assay is T2, human EP2 (Homo sapiens, UniProt P43116).
T2 construct: expressed in transfected cells; host or cells: HEK293 (transient)
Nature of the assay: In vitro binding to human EP2 ([3H]-PGE2 displacement, membranes). Particulars: HEK293 membranes, geometric mean ± SD, read-out: hEP2, Ki. How it is done:
as §1, §2

A further assay concerns the target T3, human EP3 (isoform VI) (Homo sapiens, UniProt P43115).
T3 construct: expressed in transfected cells; host or cells: HEK293 (transient)
T3 sequence (P43115 1-374 isoform P43115-4): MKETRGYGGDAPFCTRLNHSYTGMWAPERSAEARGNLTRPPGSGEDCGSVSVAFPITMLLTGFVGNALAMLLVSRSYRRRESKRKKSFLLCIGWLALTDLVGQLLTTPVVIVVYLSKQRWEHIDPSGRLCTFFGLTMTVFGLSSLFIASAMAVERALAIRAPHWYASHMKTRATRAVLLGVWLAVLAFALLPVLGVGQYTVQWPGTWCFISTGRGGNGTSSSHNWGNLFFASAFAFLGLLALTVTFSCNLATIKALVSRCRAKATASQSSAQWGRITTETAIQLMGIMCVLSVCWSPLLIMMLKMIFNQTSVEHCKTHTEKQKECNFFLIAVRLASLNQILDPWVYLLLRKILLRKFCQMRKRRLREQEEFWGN
Put plainly: In vitro binding to human EP3 ([3H]-PGE2 displacement, membranes). Particulars: HEK293 membranes, geometric mean ± SD, read-out: hEP3, Ki. How it is done:
as §1, §2

The target of assay [1] is T4, human EP4 (Homo sapiens, UniProt P35408).
T4 construct: expressed in transfected cells
Put plainly: In vitro human EP4 functional antagonist activity (PGE2-stimulated cAMP, HTRF, HEK293). It is filed as cell-based. The settings on record: HEK293 cells expressing human EP4, EC80 of PGE2; geometric mean ± SD; read-out: IC50, inhibition of PGE2-stimulated cAMP production, human EP4. How it is done: Assays are conducted in recombinant HEK293 cells stably expressing human EP4 receptor. The cell lines are maintained by culturing in DMEM with high glucose and pyridoxine hydrochloride (Invitrogen) supplemented with 10% fetal bovine serum (FBS), 1 mM sodium pyruvate, 10 mM HEPES, […] and 2 mM L-glutamine. Confluent cultures are grown at 37° C. in an atmosphere containing 5% CO2. Cells are harvested using 2.5% Trypsin-EDTA, suspended in freeze media (FBS with 6% DMSO) at 10^7 cells/mL and aliquots are stored in liquid nitrogen. Just before assay, cells are thawed in DMEM, centrifuged, and resuspended in cAMP buffer.
The inhibition of PGE2-stimulated cAMP production by EP4 antagonists is measured using HTRF; (Cisbio catalog #62AM4PEB). […] The HTRF signal is detected using an EnVision® plate reader (Perkin-Elmer) to calculate the ratio of fluorescence at 665 nm to 620 nm. […] Results are expressed as the geometric mean±standard deviation; n=number of independent determinations. The standard deviation is calculated by the delta method, being Slog IC50×geometric mean×ln(10).

For assay [2], the target named is T4, human EP4. Put plainly: In vitro binding to human EP4 ([3H]-PGE2 displacement, membranes). The settings on record: HEK293 membranes, geometric mean ± SD, read-out: hEP4, Ki. How it is done: as §1, §2
The target of another assay is T5, rat EP4 (Rattus norvegicus, UniProt P43114).
T5 construct: expressed in transfected cells
Put plainly: In vitro rat EP4 functional antagonist activity (PGE2-stimulated cAMP, HTRF, HEK293). It is filed as cell-based. The settings on record: HEK293 cells expressing rat EP4, PGE2 at EC80, cAMP HTRF; read-out: IC50 measured at rat EP4. How it is done: Rat EP4 cDNA (Genebank Accession# NM 03276) is cloned into pcDNA 3.1 vector and subsequently transfected in HEK293 cells for receptor expression. Rat EP4 stable clone is scaled up and then frozen down as cell bank for future compounds screening. To test EP4 antagonist compounds in rEP4 cells, thaw the frozen cells and then resuspend cells in cAMP assay buffer. The cAMP buffer is made by HBSS without Phenol Red (Hyclone, SH30268) supplemented with 20 mM HEPES (Hyclone, SH30237), 0.1% BSA (Gibco, 15260) and 125 μM IBMX (Sigma, 15879). The cells are plated into 96-well half area flat-bottom polystyrene black plates (Costar 3694). Compounds are serial diluted with DMSO to give 10-point concentration response curves. Then diluted compounds are added into cAMP assay buffer which contains PGE2 (Cayman 14010, in a concentration predetermined to produce an EC80) at ratio of DMSO/buffer at 1/100. The cells are treated with compounds in the presence of PGE2 (EC80 concentration) for 30 minutes at room temperature. The cAMP levels generated from the cells are quantified by a cAMP HTRF assay kit (Cisbio 62AM4PEC). The plates are read on an EnVision plate reader using HTRF optimized protocol (PerkinElmer). IC50's are calculated using Graphpad Prism (v. 4) nonlinear regression, sigmoidal dose response curve fitting.
In general terms: TR-FRET usually uses a lanthanide donor and a delayed reading to cut background.

The subject of assay [3] is LPS-induced TNFα production in human whole blood. Put plainly: In vitro antagonist activity in human whole blood (reversal of PGE2 inhibition of LPS-induced TNFα). It is filed as cell-based. The settings on record: 10 μg/mL LPS, 10 nM PGE2, geometric mean ± SD, read-out: IC50, reversal of inhibitory effect of PGE2 on LPS-induced TNFα production. From the text:
The inhibitory effects of PGE2 on LPS-induced TNFα production from macrophages/monocytes are believed to be mediated by EP4 receptors (See Murase, A., et al., Life Sciences, 82:226-232 (2008)). The ability of the compound of Example 1 to reverse the inhibitory effect of PGE2 on LPS-induced TNFα production in human whole blood is an indicia of functional activity.
Blood is collected from normal volunteer donors into sodium heparin vacutainer tubes. Donors have not taken NSAIDs or celecoxib within 48 hours or glucocorticoids within two weeks of the donation. All tubes/donor are pooled into 50 mL Falcon conical centrifuge tubes and 98 μL/well is distributed into 96-well tissue culture plates (Falcon 3072). […] TNFα levels in 2 μL plasma are quantified by a commercially available enzyme immunoassay (R&D Systems DY210), using Immulon 4 HBX plates (Thermo 3855) and 3,3′,5,5′ tetramethylbiphenyl-4,4′-diamine substrate (KPL 50-76-03). The plates are read at A450-A650 on a plate reader (Molecular Devices Versamax) using SOFTmaxPRO (v. 4.3.1) software. IC50s are calculated using Graphpad Prism (v. 4) nonlinear regression, sigmoidal dose response curve fitting. Results are expressed as the geometric mean±standard deviation; n=number of independent determinations. The standard deviation is calculated by the delta method, being SDlog IC50×geometric mean×ln(10).

T4 sequence (P35408 whole entry): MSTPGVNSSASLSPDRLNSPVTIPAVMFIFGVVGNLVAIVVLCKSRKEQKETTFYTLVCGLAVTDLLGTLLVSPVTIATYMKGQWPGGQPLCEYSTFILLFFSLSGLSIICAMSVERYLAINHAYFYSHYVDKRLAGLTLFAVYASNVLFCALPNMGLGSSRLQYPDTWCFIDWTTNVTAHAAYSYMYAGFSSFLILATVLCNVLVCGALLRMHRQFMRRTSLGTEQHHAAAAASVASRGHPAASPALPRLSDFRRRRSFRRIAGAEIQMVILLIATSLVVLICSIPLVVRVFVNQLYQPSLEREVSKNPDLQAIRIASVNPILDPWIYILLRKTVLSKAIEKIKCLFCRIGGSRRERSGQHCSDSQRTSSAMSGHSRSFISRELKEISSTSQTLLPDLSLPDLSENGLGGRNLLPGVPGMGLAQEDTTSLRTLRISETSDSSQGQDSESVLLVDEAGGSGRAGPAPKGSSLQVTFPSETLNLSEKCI
T2 sequence (P43116 whole entry): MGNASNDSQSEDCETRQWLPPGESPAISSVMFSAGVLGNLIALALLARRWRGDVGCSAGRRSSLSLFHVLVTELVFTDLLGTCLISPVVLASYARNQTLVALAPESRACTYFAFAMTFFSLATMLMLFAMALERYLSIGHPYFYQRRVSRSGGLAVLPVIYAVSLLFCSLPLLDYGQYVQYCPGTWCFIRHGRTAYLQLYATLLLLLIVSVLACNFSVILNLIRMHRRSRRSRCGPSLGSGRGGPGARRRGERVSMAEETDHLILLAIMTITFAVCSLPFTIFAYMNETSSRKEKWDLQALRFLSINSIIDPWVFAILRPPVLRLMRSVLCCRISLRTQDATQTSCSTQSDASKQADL
T5 sequence (P43114 whole entry): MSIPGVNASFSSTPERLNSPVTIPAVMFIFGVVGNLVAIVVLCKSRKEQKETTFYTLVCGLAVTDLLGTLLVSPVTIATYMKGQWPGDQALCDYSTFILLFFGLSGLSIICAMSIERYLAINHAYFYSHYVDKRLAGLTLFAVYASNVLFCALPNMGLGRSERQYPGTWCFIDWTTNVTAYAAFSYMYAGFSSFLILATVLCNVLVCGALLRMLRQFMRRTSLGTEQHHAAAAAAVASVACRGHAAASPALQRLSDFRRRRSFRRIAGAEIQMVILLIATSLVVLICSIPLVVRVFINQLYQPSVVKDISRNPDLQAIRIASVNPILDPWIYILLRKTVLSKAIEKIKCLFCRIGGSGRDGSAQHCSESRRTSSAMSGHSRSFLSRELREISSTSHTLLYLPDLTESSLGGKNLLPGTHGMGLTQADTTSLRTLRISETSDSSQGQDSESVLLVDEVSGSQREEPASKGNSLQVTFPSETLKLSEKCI

As a reminder, the Ki is a dissociation constant, usually derived from enzyme kinetics or from competition with a known ligand. The IC50 is the point on the concentration scale where inhibition reaches its midpoint. For `Cc1ccc(-c2cccc(CO)c2)cc1C(=O)Nc1c(C)ccc(C(=O)O)c1C` [Example 1, 3-[[5-[3-(Hydroxymethyl)phenyl]-2-methyl-benzoyl]amino]-2,4-dimethyl-benzoic acid], the Ki was greater than 18800 nM on human EP1, 5850 ± 1010 nM at human EP2, greater than 14800 nM on human EP3 (isoform VI) and 2.18 ± 1.74 nM at human EP4 [2]. Besides, the IC50 worked out at 2.31 ± 2.02 nM on human EP4 [1], 1.51 nM at rat EP4 and 59.5 ± 37.8 nM in assay [3].
For `Cc1ccc(-c2cccc(CO)c2)nc1C(=O)Nc1c(C)ccc(C(=O)O)c1C` [Example 22, 3-[[6-[3-(Hydroxymethyl)phenyl]-3-methyl-pyridine-2-carbonyl]amino]-2,4-dimethyl-benzoic acid], the Ki on human EP1 was greater than 17500 nM; on human EP2, greater than 18900 nM; on human EP3 (isoform VI), greater than 14000 nM; at human EP4 [2] it was 2.07 ± 1.31 nM.
